These antisense oligonucleotides have a phosphorothioate backbone; sugars and methylation of C are not fully specified.
Legend:
Conditions in all cases: ASO
AKT1 = target: AKT1
ETS2 = target: ETS2
GNAI1 = target: GNAI1
PYGL = target: PYGL
Also: test concentration or dose not given here.

Sequence | remaining target (mRNA or protein) (fraction of control) (ETS2) | remaining target (mRNA or protein) (fraction of control) (GNAI1) | further results
CTGGCTGACAGAGTGAGG |  |  | remaining target (mRNA or protein) (fraction of control) (AKT1): 0.41
CTTAAAAGCACTGTGAGT | 0.63 |  | 
CTTTGACTTCTTTGACCC |  |  | remaining target (mRNA or protein) (fraction of control) (AKT1): 0.32
CTTTTACCAGATTCACCA |  | 0.96 | 
GAAGCCACTGGCATACCT | 0.64 |  | 
GAGGCAGCCTGGTCAAGA | 0.61 |  | 
GATAGTTTTCTTCCCTAC |  |  | remaining target (mRNA or protein) (fraction of control) (AKT1): ≥ 1
GCAGGTATAACTGGTTTG | ≥ 1 |  | 
GCATTCGGTTCATTTCTT |  | 0.58 | 
GCCACGATGACTTCCTTC |  |  | remaining target (mRNA or protein) (fraction of control) (AKT1): 0.4
GCCGTGAACTCCTCATCA |  |  | remaining target (mRNA or protein) (fraction of control) (AKT1): 0.44
GCCTCTCCATCCCTCCAA |  |  | remaining target (mRNA or protein) (fraction of control) (AKT1): 0.24
GCGGCTGGCTGACAGAGT |  |  | remaining target (mRNA or protein) (fraction of control) (AKT1): 0.39
GCGTGCAGTTCCTCGGGC | 0.81 |  | 
GCTGCTGTGTGCCTGCCA |  |  | remaining target (mRNA or protein) (fraction of control) (AKT1): 0.62
GGAACGGAGGTGAGGTGT | 0.61 |  | 
GGACGGCCGAGTGGAGGG | 0.81 |  | 
GGAGAACAAACTGGATGA |  |  | remaining target (mRNA or protein) (fraction of control) (AKT1): ≥ 1
GGAGCTGAGCCGAGACTT | 0.51 |  | 
GGCAGCCCCTTTGACTTC |  |  | remaining target (mRNA or protein) (fraction of control) (AKT1): 0.47
GGCCACTTTCCTGGACAT | ≥ 1 |  | 
GGCCGGCTCAGGGTGGTC | 0.51 |  | 
GGCTGGCGCTTGAGTGTC | 0.7 |  | 
GGCTTGAAGGGTGGGCTG |  |  | remaining target (mRNA or protein) (fraction of control) (AKT1): 0.59

Sequence | remaining target (mRNA or protein) (fraction of control) (ETS2) | remaining target (mRNA or protein) (fraction of control) (GNAI1) | further results
GGGACCCATCAAAGGTGT | 0.66 |  | 
GGGTAATTCTGTGTCTGC | 0.96 |  | 
GGGTCACTCCTCTCTTGG | 0.75 |  | 
GGTCAGGTGGTGTGATGG |  |  | remaining target (mRNA or protein) (fraction of control) (AKT1): ≥ 1
GTATAATGGATGTATCTG |  | 0.86 | 
GTCCATATTCTTGATTCC | ≥ 1 |  | 
GTGCCAAAACCTAATGTA | 0.66 |  | 
GTGCCGCAAAAGGTCTTC |  |  | remaining target (mRNA or protein) (fraction of control) (AKT1): 0.34
GTTGAGTCGGGATGTAAT |  | ≥ 1 | 
TAAAACCCGCAGGATAGT |  |  | remaining target (mRNA or protein) (fraction of control) (AKT1): 0.26
TAAAAGAGACCACAATCT |  | 0.81 | 
TAAGGCTTGACTCATCAC | ≥ 1 |  | 
TAATAGTCTGTCATTCAG |  | 0.95 | 
TACTCAGGTGTGCCGCAA |  |  | remaining target (mRNA or protein) (fraction of control) (AKT1): 0.34
TACTCCCCTCGTTTGTGC |  |  | remaining target (mRNA or protein) (fraction of control) (AKT1): ≥ 1
TAGATAAGGGCTGTAATG |  | 0.87 | 
TCAAAATACCTGGTGTCA |  |  | remaining target (mRNA or protein) (fraction of control) (AKT1): 0.49
TCACCAAAGTCTATCTTC |  | ≥ 1 | 
TCACCCTAAAATCCTAAG |  | ≥ 1 | 
TCATCTTACTCCGCTCCA |  | 0.66 | 
TCATTTCTTCATCTTCAG |  | ≥ 1 | 
TCCCCATAGCCCTAATGA |  | 0.21 | 
TCCTCCTCCTCCTGCTTC |  |  | remaining target (mRNA or protein) (fraction of control) (AKT1): 0.91
TCGTAATAGTAGCGTAAG | 0.85 |  | 

Sequence | remaining target (mRNA or protein) (fraction of control) (ETS2) | remaining target (mRNA or protein) (fraction of control) (GNAI1) | further results
TCTTTTATTGAGGTCTTC |  | ≥ 1 | 
TGATCCAAAGGCAGGTGT |  | 0.27 | 
TGCCAGCTCCAGAAAGCG | 0.84 |  | 
TGCCATCATTCTTGAGGA |  |  | remaining target (mRNA or protein) (fraction of control) (AKT1): 0.35
TGGAGCCAAACTTGGAGGCT |  |  | remaining target (mRNA or protein) (fraction of control) (PYGL): 0.32
TGGCTTATTGAGGCAGAG | 0.94 |  | 
TGTGTCCTTTCTTTTATT |  | 0.63 | 
TGTTCCCAGAGAATGTCA | 0.63 |  | 
TTAAGAACATTTCAATAA |  | 0.99 | 
TTATGTTATTTCCAAAGC |  | 0.87 | 
TTCAACCTCCCCATAGCC |  | 0.81 | 
TTCCAACCATAGGGTCATTG |  |  | remaining target (mRNA or protein) (fraction of control) (PYGL): 0.27
TTCTGGTTGAGCTCCCATGC |  |  | remaining target (mRNA or protein) (fraction of control) (PYGL): 0.52
TTCTGTCCAAGTCATTCA |  | 0.64 | 
TTCTTTGGAATGCCCAGG | 0.93 |  | 
TTGCAGTGTTTGCTCTTC | ≥ 1 |  | 
TTGTCAATTTGATCAATGAC |  |  | remaining target (mRNA or protein) (fraction of control) (PYGL): 0.62
TTTCCACAATCTCTTTAT |  | 0.92 | 
TTTCCTCTTTCCCCACCG | ≥ 1 |  | 
TTTCTTGGTTTTCTTTGA | ≥ 1 |  | 
TTTGAAAGTAAAATGGGT |  | ≥ 1 | 
TTTTCTTCCCTACCCCGC |  |  | remaining target (mRNA or protein) (fraction of control) (AKT1): 0.36

Reference: the OligoGym collection
